Values of other authors as cited in patent publication US10842805B2, “Compositions containing enriched natural crocin and/or crocetin, and their therapeutic or nutraceutical uses” (priority 2012, dated 2020).

Tested on: ethanol-induced inhibition of hippocampal long-term potentiation
Conditions: mouse, in vivo

Compound	constituent to which the beneficial effect of saffron extract is attributed
CC(/C=C/C=C(\C)C(=O)O)=C\C=C\C=C(C)\C=C\C=C(/C)C(=O)O [crocetin]	not crocetin
CC(/C=C/C=C(\C)C(=O)O[C@@H]1O[C@H](CO[C@@H]2O[C@H](CO)[C@@H](O)[C@H](O)[C@H]2O)[C@@H](O)[C@H](O)[C@H]1O)=C\C=C\C=C(C)\C=C\C=C(/C)C(=O)O[C@@H]1O[C@H](CO[C@@H]2O[C@H](CO)[C@@H](O)[C@H](O)[C@H]2O)[C@@H](O)[C@H](O)[C@H]1O [crocin, Crocetin-di-beta-D-gentiobiosyl ester]	attributed to crocin
